US20090306035A1, “Compounds and Methods for modulating the Silencing of a Polynucleotide of Interest” (Emory University, priority 2005, published 2009)

Assays:
Assay type in all cases: cell-based
miR-30a-3p = assay: miRNA sensor (Luc-T30 reporter with miR-30a-3p target sites), dual luciferase assay of HepG2 cells; conditions: reporter with miR-30 target sequence, endogenously expressed miR-30, FIG. 7
Method: In FIG. 6, top left panel, the blue arrowheads in Luc-T30 indicate artificial target sequence against miR-30a-3p. Luc-AT30 has an artificial sequence complementary to that in Luc-T30. […] Relative luciferase activity was calculated by dividing the reporter (Firefly) luciferase activity with co-transfected Renilla luciferase activity. Luciferase activity was decreased by transfecting Luc-T30 in HepG2 (orange bars) without changes in the amount of its mRNA (blue bars). Error bars represent the standard deviation (SD) of three triplicate experiments. […] Error bars represent the standard deviation (SD) from three triplicate experiments. **P=0.004; *****P=0.00001.
This reporter contains the target sequence of miR-30. In the miR-30 system, the endogenously expressed miR-30 was used and, in this cell line, miR-30 has been processed completely. Thus, the addition of enoxacin had no effect.

[1] = test system: shRNA against Luciferase mRNA; assay: GL-3 luciferase reporter transfected into cells expressing shRNA against Luciferase mRNA; conditions: GL-3 luciferase plus shLuc, FIG. 5
Excerpt: In this example, a luciferase reporter construct GL-3 was transfected into the cells expressing shRNA against Luciferase mRNA.

[2] = test system: siRNA-mediated mRNA degradation and gene knock-down (GFP siRNA); assay: GFP reporter screen: 293 cells stably expressing GFP and an siRNA hairpin against GFP; conditions: human 293 cells, GFP reporter with siRNA hairpin against GFP; Spectrum Collection screen
Method: FIG. 2 discloses one embodiment of the cell-based reporter system of the invention. In this example, a human 293-cell line stably expressing a reporter gene, GFP, was used. This cell line was further transfected with a construct that expresses siRNA hairpin against GFP, which can decrease the level of GFP expression. Individual clones were isolated with greatly (although not completely) reduced GFP expression.
Using the above-identified clones, a screen was performed using The Spectrum Collection (MicroSource Discovery Systems, Inc., Gaylordsville, Conn., United States of America), which contains 2000 biologically active and structurally diverse compounds from libraries of known drugs, experimental bioactives, and pure natural products. For example, in one embodiment, a pilot screen of this library identified one inhibitor and one enhancer of siRNA-mediated mRNA degradation.
To identify the chemical compounds that modulate the siRNA and miRNA pathway, a screening strategy was used. A human 293-cell line stably expressing a reporter gene, GFP, was used. This cell line was further transfected with a construct that expresses siRNA hairpin against GFP, which could knock down the expression of GFP. […]

| Structure (SMILES) | miRNA-mediated translational suppression (miR-30a-3p) | knock-down efficiency of shRNA against luciferase mRNA (relative luciferase activity) [1] | knock-down efficiency of shRNA against luciferase mRNA (relative luciferase activity) ([1]; listed as ciproflaxin) | effect on siRNA-mediated mRNA degradation and gene knock-down [2] |
| --- | --- | --- | --- | --- |
| COc1cc(C(=O)NCc2ccc(OCCN(C)C)cc2)cc(OC)c1OC [RNAi-I] | released the miRNA-mediated translational suppression | – | – | – |
| O=C(O)c1cn(C2CC2)c2cc(N3CCNCC3)c(F)cc2c1=O [ciprofloxacin] | – | enhance siRNA-mediated mRNA degradation | increased the knock-down efficiency | – |
| CCn1cc(C(=O)O)c(=O)c2cc(F)c(N3CCNCC3)nc21 [enoxacin] | no effect | increased the knock-down efficiency | – | enhance siRNA-mediated mRNA degradation and gene knock-down |
| COc1cc(C(=O)NCc2ccc(OCCN(C)C)cc2)cc(OC)c1OC [trimethobenzamide] | – | – | – | inhibit siRNA-mediated mRNA degradation and gene knock-down |
